In patent US9096593B2, “Compounds and methods for kinase modulation, and indications therefor” (Plexxikon Inc., priority 2009, dated 2015):
Where two headings read alike, the source gives them in different places.

Legend:
CYP2C19 = CYP2C19 (Homo sapiens (Human), UniProt P33261); assay: CYP enzyme inhibition, fluorescent substrate
Method in brief: (§1)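 […]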

CYP1A2 = CYP1A2 (Homo sapiens (Human), UniProt P05177); assay: CYP enzyme inhibition, fluorescent substrate
CYP3A4(BFC) = CYP3A4(BFC) (Homo sapiens (Human), UniProt P08684); assay: CYP enzyme inhibition, fluorescent substrate
Chain of CYP3A4(BFC) (P08684 whole entry): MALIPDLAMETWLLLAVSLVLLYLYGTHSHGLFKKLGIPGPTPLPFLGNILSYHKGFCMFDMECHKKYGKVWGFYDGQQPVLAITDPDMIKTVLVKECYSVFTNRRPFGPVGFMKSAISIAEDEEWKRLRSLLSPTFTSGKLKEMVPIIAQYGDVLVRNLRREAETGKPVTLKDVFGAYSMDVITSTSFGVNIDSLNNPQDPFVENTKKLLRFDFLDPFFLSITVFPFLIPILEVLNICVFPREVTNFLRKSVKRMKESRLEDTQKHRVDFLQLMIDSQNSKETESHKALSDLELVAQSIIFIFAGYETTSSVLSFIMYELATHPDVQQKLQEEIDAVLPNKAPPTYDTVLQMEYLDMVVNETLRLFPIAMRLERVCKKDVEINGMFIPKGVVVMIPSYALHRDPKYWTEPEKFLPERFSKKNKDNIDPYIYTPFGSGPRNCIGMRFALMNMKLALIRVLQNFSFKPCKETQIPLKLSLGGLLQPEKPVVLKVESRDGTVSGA
Method in brief: as §1

CYP2C9 = CYP2C9 (Homo sapiens (Human), UniProt P11712); assay: CYP enzyme inhibition, fluorescent substrate
Chain of CYP2C9 (P11712 whole entry): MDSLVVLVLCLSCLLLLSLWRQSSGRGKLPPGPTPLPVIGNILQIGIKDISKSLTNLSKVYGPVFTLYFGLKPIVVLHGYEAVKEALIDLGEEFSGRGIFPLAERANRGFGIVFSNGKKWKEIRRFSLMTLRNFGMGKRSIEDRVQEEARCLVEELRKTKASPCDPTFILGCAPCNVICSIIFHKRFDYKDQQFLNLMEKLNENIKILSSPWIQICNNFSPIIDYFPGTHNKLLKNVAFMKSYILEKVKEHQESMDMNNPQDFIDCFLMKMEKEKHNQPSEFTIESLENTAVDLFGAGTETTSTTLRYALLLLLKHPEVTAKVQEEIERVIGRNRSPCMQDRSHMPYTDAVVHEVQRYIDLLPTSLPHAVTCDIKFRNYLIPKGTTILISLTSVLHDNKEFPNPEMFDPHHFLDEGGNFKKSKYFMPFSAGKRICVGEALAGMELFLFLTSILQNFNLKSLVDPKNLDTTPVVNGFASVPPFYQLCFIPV
Method in brief: as §1

CYP2D6 = CYP2D6 (Homo sapiens (Human), UniProt P10635); assay: CYP enzyme inhibition, fluorescent substrate
Chain of CYP2D6 (P10635 whole entry): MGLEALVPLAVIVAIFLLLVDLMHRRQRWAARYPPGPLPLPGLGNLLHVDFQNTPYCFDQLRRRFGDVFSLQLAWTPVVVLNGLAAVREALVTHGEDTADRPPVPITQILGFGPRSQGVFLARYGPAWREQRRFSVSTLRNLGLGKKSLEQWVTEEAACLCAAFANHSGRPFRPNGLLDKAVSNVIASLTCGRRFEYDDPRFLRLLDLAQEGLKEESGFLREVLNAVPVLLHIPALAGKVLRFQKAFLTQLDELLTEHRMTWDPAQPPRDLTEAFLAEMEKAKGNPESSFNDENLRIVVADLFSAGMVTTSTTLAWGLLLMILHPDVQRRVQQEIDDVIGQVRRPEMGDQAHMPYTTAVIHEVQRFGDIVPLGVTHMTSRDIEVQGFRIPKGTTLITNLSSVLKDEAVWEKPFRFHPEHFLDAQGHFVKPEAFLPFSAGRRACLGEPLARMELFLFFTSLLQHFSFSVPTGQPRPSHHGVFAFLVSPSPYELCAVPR

CYP3A4(BQ) = CYP3A4(BQ) (Homo sapiens (Human), UniProt P08684); assay: CYP enzyme inhibition, fluorescent substrate
Chain of CYP3A4(BQ) (P08684 whole entry): as the sequence (P08684 whole entry) above
Method in brief: as §1

Flt-3 kinase = Flt-3 kinase (Homo sapiens (Human), UniProt P36888); assay: Flt-3 kinase biochemical activity assay (AlphaScreen, biotin-(E4Y)10 phosphorylation); settings: 100 μM ATP
Chain of Flt-3 kinase (P36888 27-993): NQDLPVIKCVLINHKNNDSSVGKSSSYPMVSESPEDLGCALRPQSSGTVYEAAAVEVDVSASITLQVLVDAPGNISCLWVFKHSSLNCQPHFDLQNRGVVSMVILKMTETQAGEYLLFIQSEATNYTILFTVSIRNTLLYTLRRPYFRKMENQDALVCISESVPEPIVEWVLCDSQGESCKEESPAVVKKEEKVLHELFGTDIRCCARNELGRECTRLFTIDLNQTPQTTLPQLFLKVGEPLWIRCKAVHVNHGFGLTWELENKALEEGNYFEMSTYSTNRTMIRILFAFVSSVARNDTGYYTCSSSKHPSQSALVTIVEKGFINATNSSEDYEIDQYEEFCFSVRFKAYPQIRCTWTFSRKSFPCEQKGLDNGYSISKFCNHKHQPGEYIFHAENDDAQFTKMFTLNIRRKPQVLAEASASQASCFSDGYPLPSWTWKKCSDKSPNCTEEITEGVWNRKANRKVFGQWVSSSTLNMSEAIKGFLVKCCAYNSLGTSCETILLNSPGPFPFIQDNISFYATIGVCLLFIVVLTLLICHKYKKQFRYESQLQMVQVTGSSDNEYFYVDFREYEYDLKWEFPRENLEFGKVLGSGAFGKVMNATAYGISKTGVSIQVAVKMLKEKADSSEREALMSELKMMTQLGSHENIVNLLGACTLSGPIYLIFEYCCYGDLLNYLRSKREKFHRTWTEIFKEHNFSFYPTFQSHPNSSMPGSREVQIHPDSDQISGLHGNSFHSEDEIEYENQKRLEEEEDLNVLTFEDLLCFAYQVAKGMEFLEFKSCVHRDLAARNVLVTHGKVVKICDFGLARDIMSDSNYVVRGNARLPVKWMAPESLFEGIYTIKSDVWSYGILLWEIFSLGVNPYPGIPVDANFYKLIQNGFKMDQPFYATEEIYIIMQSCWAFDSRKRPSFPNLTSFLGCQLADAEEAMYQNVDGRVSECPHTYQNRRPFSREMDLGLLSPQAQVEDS
Procedure: In one assay the biochemical activity IC50 values are determined with respect to inhibition of Flt-3 kinase activity, where inhibition of phosphorylation of a peptide substrate is measured as a function of compound concentration. Compounds to be tested, dissolved in DMSO (1 μL), are added to a white 384-well plate (Costar #3705). Working stocks of Flt-3 kinase (Invitrogen), biotin-(E4Y)10 substrate (Upstate Biotech, Cat#12-440), and ATP (Sigma, Cat#A-3377) are prepared in 25 mM Hepes pH 7.5, 5 mM MgCl2, 5 mM MnCl2, 1 mM DTT, and 0.01% Tween-20. All components are added to the 384-well plate for a final concentration of 1 ng/well Flt-3, 30 nM biotin-(E4Y)10 and 100 μM ATP in a volume of 20 μL. Each sample is at 5% DMSO. The plate is then incubated for 1 hour at room temperature. Just before use, working stocks of donor and acceptor beads from the AlphaScreen PY20 Detection Kit (PerkinElmer, Cat#676601M) are prepared in 25 mM Hepes pH 7.5, pH 7.4, 100 mM EDTA. 0.3% BSA. To stop the reaction, the plate is uncovered in the dark and 5 μL of Donor Beads solution (Streptavidin beads) is added to each well. The plate is incubated at room temperature for 20 minutes. Five microliters of Acceptor Beads solution (PY20 coated beads) are then added to each well. The final concentration of each bead is 10 μg/mL. The plates are incubated at room temperature for 60 minutes. Fluorescence signal is recorded on the Envision reader. Phosphorylated substrate results in binding of the PY20 antibody and association of the donor and acceptor beads such that signal correlates with kinase activity. The signal vs. compound concentration is used to determine the IC50.

[1] = read-out: Cyp IC50 (μM) 3A4(BFC), BFC substrate
[2] = read-out: Cyp IC50 (μM) 3A4(BQ), BQ substrate

Chain of CYP2C19 (P33261 whole entry): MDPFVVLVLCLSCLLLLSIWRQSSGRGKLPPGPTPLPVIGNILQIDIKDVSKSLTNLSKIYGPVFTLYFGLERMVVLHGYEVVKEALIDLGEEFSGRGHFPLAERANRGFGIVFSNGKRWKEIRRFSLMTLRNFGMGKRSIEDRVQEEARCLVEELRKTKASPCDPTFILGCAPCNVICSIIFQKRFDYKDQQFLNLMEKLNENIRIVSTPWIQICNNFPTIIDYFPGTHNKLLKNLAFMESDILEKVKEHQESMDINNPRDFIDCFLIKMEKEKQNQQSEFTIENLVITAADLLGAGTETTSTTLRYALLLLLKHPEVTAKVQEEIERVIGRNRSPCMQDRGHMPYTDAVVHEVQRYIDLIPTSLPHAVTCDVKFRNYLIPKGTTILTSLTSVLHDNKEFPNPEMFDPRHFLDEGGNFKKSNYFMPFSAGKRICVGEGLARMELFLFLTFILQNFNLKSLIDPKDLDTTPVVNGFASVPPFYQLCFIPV
Chain of CYP1A2 (P05177 whole entry): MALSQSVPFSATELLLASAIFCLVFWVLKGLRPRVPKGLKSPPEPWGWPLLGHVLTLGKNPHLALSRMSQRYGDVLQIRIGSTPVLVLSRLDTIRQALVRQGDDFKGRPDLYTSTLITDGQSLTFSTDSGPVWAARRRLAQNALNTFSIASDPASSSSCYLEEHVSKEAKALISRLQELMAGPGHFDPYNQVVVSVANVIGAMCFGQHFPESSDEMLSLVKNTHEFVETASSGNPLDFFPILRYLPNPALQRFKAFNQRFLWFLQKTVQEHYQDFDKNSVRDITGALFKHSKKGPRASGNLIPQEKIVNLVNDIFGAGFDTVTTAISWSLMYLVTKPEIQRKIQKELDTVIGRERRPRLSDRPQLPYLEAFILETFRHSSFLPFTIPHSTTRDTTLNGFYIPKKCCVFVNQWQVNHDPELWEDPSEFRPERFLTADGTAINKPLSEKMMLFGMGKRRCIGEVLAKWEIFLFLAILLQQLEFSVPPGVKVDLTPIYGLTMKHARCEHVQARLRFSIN

SMILES	IC50 (CYP2C19) [µM]	IC50 (CYP1A2; human, 15 min) [µM]	IC50 (CYP3A4(BFC); [1]) [µM]	IC50 (CYP2C9) [µM]	IC50 (CYP2D6; read-out: Cyp IC50 (μM) 2D6) [µM]	IC50 (CYP3A4(BQ); [2]) [µM]	IC50 (Flt-3 kinase) [µM]	IC50 (CYP2C19; read-out: Cyp IC50 (μM) 2C19) [µM]	IC50 (CYP2C9; read-out: Cyp IC50 (μM) 2C9) [µM]	IC50 (CYP1A2; read-out: Cyp IC50 (μM) 1A2) [µM]	IC50 (CYP2D6) [µM]	IC50 (CYP3A4(BQ)) [µM]	IC50 (CYP2C9; human, CYP2C9 enzyme (BD Biosciences), 45 min) [µM]	IC50 (CYP1A2) [µM]	IC50 (CYP3A4(BFC)) [µM]
COc1ccc(CNc2ncc(Cc3c[nH]c4ncc(C)cc34)cn2)cn1 [Compound P-2057, (6-Methoxy-pyridin-3-ylmethyl)-[5-(5-methyl-1H-pyrrolo[2,3-b]pyridin-3-ylmethyl)-pyrimidin-2-yl]-amine]	5 to 10	> 10	> 10	5 to 10	> 10	> 10	< 0.1								
COc1ncc(CNc2ccc(Cc3c[nH]c4ncc(Cl)cc34)c(F)n2)cc1F [Compound P-2165, [5-(5-Chloro-1H-pyrrolo[2,3-b]pyridin-3-ylmethyl)-6-fluoro-pyridin-2-yl]-(5-fluoro-6-methoxy-pyridin-3-ylmethyl)-amine]		> 10	> 10		> 10	> 10	< 0.1	> 10	> 10						
Fc1ccc(CNc2ccc(Cc3c[nH]c4ncc(Cl)cc34)cn2)cn1 [Compound P-2004, [5-(5-chloro-1H-pyrrolo[2,3-b]pyridin-3-ylmethyl)-pyridin-2-yl]-(6-fluoro-pyridin-3-ylmethyl)-amine]	5 to 10		< 5				< 0.1		< 5	> 10	5 to 10	5 to 10			
Cc1cnc2[nH]cc(Cc3ccc(NCc4ccc(C(F)(F)F)nc4)nc3)c2c1 [Compound P-2019, [5-(5-Methyl-1H-pyrrolo[2,3-b]pyridin-3-ylmethyl)-pyridin-2-yl]-(6-trifluoromethyl-pyridin-3-ylmethyl)-amine]	5 to 10	> 10	< 5		< 5	> 10	< 0.1						< 5		
Clc1cnc2[nH]cc(Cc3ccc(NCc4ccc(Cl)nc4)nc3)c2c1 [Compound P-2003]			5 to 10		> 10	> 10	< 0.1	5 to 10	< 5					> 10	
COc1ccc(CNc2ccc(Cc3c[nH]c4ncc(C)cc34)c(F)n2)cn1 [Compound P-2029, [6-Fluoro-5-(5-methyl-1H-pyrrolo[2,3-b]pyridin-3-ylmethyl)-pyridin-2-yl]-(6-methoxy-pyridin-3-ylmethyl)-amine]		> 10			> 10		< 0.1	< 5	< 5			5 to 10			5 to 10
COc1ccnc2[nH]cc(Cc3ccc(NCc4ccc(Cl)cc4)nc3F)c12 [Compound P-2037, (4-Chloro-benzyl)-[6-fluoro-5-(4-methoxy-1H-pyrrolo[2,3-b]pyridin-3-ylmethyl)-pyridin-2-yl]-amine]		> 10			> 10	> 10	< 0.1	< 5	< 5						5 to 10
